Type in all cases: physicochemical
Data set [1] in a line: Particle size of jet milled ZGN-440. To be noted: for D10 / D50 / D90: after jet milling. On the procedure: (§1) Jet milling was conducted with ZGN-440 having an initial D90 of 211.9 μm prior to jet milling.
(§2) For FPS5, jet milled ZGN-440 was recovered in greater than 90% yield. […] The particle size generated is suitable for use with a 29-gauge to 31-gauge needle.

Data set [2] is described as follows: Polymorphic form / crystallinity after suspension, jet milling or microfluidization (XRPD). To be noted: for crystallinity and polymorphic form after jet milling: XRPD. On the procedure: The following processes may be used to prepare an appropriate particle size of ZGN-440 (i) microfluidization; (ii) jet milling; (iii) ball milling; and suspension homogenization.
as §1, §2

Data set [3] can be described thus: Storage of Form C. To be noted: about three days of storage at either 5° C. or ambient temperature. The text has this: In other embodiments, Form C of 6-O-(4-dimethylaminoethoxy)cinnamoyl fumagillol, free base has an IR absorption spectrum having characteristic peaks at about at least one of: 831, 894, 1106, 1159, 1249, 1287, 1512, 1602, 1631, and 1707 cm^−1. In this context, the term “about” means that the cm^−1 values can vary, e.g. up to ±5 cm^−1. In certain embodiments, Form C of 6-O-(4-dimethylaminoethoxy)cinnamoyl fumagillol, free base is characterized by the IR absorption spectrum shown in FIG. 15 of U.S. Pat. No. 8,349,891, U.S. Pat. No. 8,735,447, and WO 2012/064838. […] Accordingly, in certain embodiments, the compositions described herein can include Form C and/or Form A derived from Form C.

Data set [4] is described as follows: physchem. An excerpt: In some embodiments, the crystalline form of Form A 6-O-(4-dimethylaminoethoxy) cinnamoyl fumagillol, free base has an IR absorption spectrum having at least one or more characteristic peaks at about 2971, 2938, 2817, 2762, 1163, 1103, 832 cm^−1. In this context, the term “about” means that the cm^−1 values can vary, e.g., up to ±5 cm^−1. In certain embodiments, the crystalline form of Form A 6-O-(4-dimethylaminoethoxy)cinnamoyl fumagillol has IR absorption spectrum shown in FIG. 5 of U.S. Pat. No. 8,349,891, U.S. Pat. No. 8,735,447, and WO 2012/064838. In some embodiments, the crystalline form (e.g., Form A) of Form A 6-O-(4-dimethylaminoethoxy)cinnamoyl fumagillol, free base is characterized by a melting point of about 83° C., for example, and characterized by a differential scanning calorimetry profile with an endotherm at about 83.1° C. […] The solubility of Form A in solvent (e.g., an aqueous solution that may include a buffer) with a pH greater or equal to about 8.0 may be less than about 0.2 mg/mL at ca. 20° C.

Each structure is given as a SMILES string. In brackets after ≈: the same amount, converted by molar mass.

Take `CO[C@@H]1[C@H](OC(=O)/C=C/c2ccc(OCCN(C)C)cc2)CC[C@]2(CO2)[C@H]1[C@@]1(C)O[C@@H]1CC=C(C)C` [FPS/1]: in data set [1], the D10 was found to be 1.1 µm, the D50 is 2.4 µm and the D90 came out at 5.2 µm.
Consider `CO[C@@H]1[C@H](OC(=O)/C=C/c2ccc(OCCN(C)C)cc2)CC[C@]2(CO2)[C@H]1[C@@]1(C)O[C@@H]1CC=C(C)C` [FPS/2], for which, in data set [1], the D10 was 1.1 µm, the D50 came to 3 µm and the D90 was found to be 6.9 µm.
On to `CO[C@@H]1[C@H](OC(=O)/C=C/c2ccc(OCCN(C)C)cc2)CC[C@]2(CO2)[C@H]1[C@@]1(C)O[C@@H]1CC=C(C)C` [FPS/3], for which, in data set [1], the D10 turned out to be 1.2 µm, the D50 was 3.9 µm and the D90 worked out at 9.5 µm.
Take `CO[C@@H]1[C@H](OC(=O)/C=C/c2ccc(OCCN(C)C)cc2)CC[C@]2(CO2)[C@H]1[C@@]1(C)O[C@@H]1CC=C(C)C` [FPS/4]: in data set [1], the D10 was 1.5 µm, the D50 was 6.5 µm and the D90 turned out to be 13.2 µm.
`CO[C@@H]1[C@H](OC(=O)/C=C/c2ccc(OCCN(C)C)cc2)CC[C@]2(CO2)[C@H]1[C@@]1(C)O[C@@H]1CC=C(C)C` [FPS/5]: in data set [1], the D10 came out at 1.2 µm, the D50 was 6.1 µm and the D90 came out at 14.3 µm. Further, in data set [2], the “crystallinity and polymorphic form after jet milling” value (from here on “crystallinity and polymorphic form”) was “crystalline and the desired polymorph”.
`CO[C@@H]1[C@H](OC(=O)/C=C/c2ccc(OCCN(C)C)cc2)CC[C@]2(CO2)[C@H]1[C@@]1(C)O[C@@H]1CC=C(C)C` [Form C, 6-O-(4-dimethylaminoethoxy) cinnamoyl fumagillol]: the “conversion of crystalline form on storage” value in data set [3] is “converts or reverts to Form A”.
In data set [1], `CO[C@@H]1[C@H](OC(=O)/C=C/c2ccc(OCCN(C)C)cc2)CC[C@]2(CO2)[C@H]1[C@@]1(C)O[C@@H]1CC=C(C)C` [NAT] showed a D10 of 1.7 µm, a D50 of 9.4 µm and a D90 of 25.1 µm. Besides, the “crystallinity and polymorphic form” value in data set [2] is “retained its crystallinity and polymorphic form”.
For the compound `CO[C@@H]1[C@H](OC(=O)/C=C/c2ccc(OCCN(C)C)cc2)CC[C@]2(CO2)[C@H]1[C@@]1(C)O[C@@H]1CC=C(C)C` [ZGN-440, 6-O-(4-dimethylaminoethoxy) cinnamoyl fumagillol], the “initial D90” value in data set [1] (prior to jet milling) is listed as 211.9 μm. Moreover, in data set [2], the “crystallinity and polymorphic form” value was “retains its crystallinity and its polymorphic structure”. Further, the polymorphic form entry in data set [2] (suspended in different aqueous diluents (e.g., for extended times) or jet milled or microfluidized) is on record as “no change in the polymorphic form”. The solubility in data set [4] (20 °C, organic solvent or mixture) is about 25 mg/mL (≈ 50 mM); in data set [4] (20 °C, pH 8, aqueous buffer), under 0.2 mg/mL; in data set [4] (50 °C, organic solvent or mixture) it was about 102 mg/mL (≈ 204 mM).

(Values after patent US20170273932A1, “LYOPHILIZED COMPOSITIONS CONTAINING A METAP-2 INHIBITOR” (Zafgen, Inc., priority 2014, published 2017).)
